In ChEMBL document CHEMBL4017476, “Synthesis of novel 5,6-dehydrokawain analogs as osteogenic inducers and their action mechanisms” (Bioorg Med Chem Lett, 2017):
Calls of active or inactive are those of the source. The calls are words filed in the database; no cut-off is given here.

test system: MC3T3-E1; assay: Osteogenic activity in mouse MC3T3-E1 cells assessed as increase in mineralization at 30 uM measured after 10 days by alizarin red S staining based assay; format: functional, cell-based; conditions: not given

SMILES | Activity
COc1cc(/C=C/c2cccc(C)c2)oc(=O)c1 | Active
CCOc1ccc(/C=C/c2cc(OC)cc(=O)o2)cc1 | Active
CCc1ccccc1/C=C/c1cc(OC)cc(=O)o1 | inactive
COc1cc(/C=C/c2ccccc2C)oc(=O)c1 | Active
COc1ccc(/C=C/c2cc(OC)cc(=O)o2)cc1 [YANGONIN] | inactive
CCCCc1ccc(/C=C/c2cc(OC)cc(=O)o2)cc1 | Active
CCc1cccc(/C=C/c2cc(OC)cc(=O)o2)c1 | Active
CCc1ccc(/C=C/c2cc(OC)cc(=O)o2)cc1 | Active
COc1cc(/C=C/c2ccsc2)oc(=O)c1 | inactive

test system: MC3T3-E1; assay: Osteogenic activity in mouse MC3T3-E1 cells assessed as increase in mineralization at 30 uM measured after 10 days in presence of BMP2 inhibitor noggin by alizarin red S staining based assay; format: functional, cell-based; conditions: not given

SMILES | Activity
CCCCc1ccc(/C=C/c2cc(OC)cc(=O)o2)cc1 | inactive
CCc1ccc(/C=C/c2cc(OC)cc(=O)o2)cc1 | inactive

organism: Mus musculus; assay: Activation of BMP signaling pathway in mouse MC3T3-E1 cells assessed as increase in Osterix mRNA expression at 10 uM after 2 days by SYBR green-dye based RT-PCR method relative to control; format: cell-based; conditions: not given

SMILES | fold change (FC)
CCCCc1ccc(/C=C/c2cc(OC)cc(=O)o2)cc1 | 2.41
CCc1ccc(/C=C/c2cc(OC)cc(=O)o2)cc1 | 2.61

organism: Mus musculus; assay: Activation of BMP signaling pathway in mouse MC3T3-E1 cells assessed as increase in Runx2 mRNA expression after 2 days by SYBR green-dye based RT-PCR method; format: cell-based; conditions: not given

SMILES | Activity
CCCCc1ccc(/C=C/c2cc(OC)cc(=O)o2)cc1 | Dose-dependent effect
CCc1ccc(/C=C/c2cc(OC)cc(=O)o2)cc1 | Dose-dependent effect

organism: Mus musculus; assay: Activation of BMP signaling pathway in mouse MC3T3-E1 cells assessed as increase in Alpl mRNA expression at 10 uM after 2 days by SYBR green-dye based RT-PCR method relative to control; format: cell-based; conditions: not given

SMILES | fold change (FC)
CCCCc1ccc(/C=C/c2cc(OC)cc(=O)o2)cc1 | 2.09
CCc1ccc(/C=C/c2cc(OC)cc(=O)o2)cc1 | 2.23

organism: Mus musculus; assay: Activation of BMP signaling pathway in mouse MC3T3-E1 cells assessed as increase in Alpl mRNA expression after 2 days by SYBR green-dye based RT-PCR method; format: cell-based; conditions: not given

SMILES | Activity
CCCCc1ccc(/C=C/c2cc(OC)cc(=O)o2)cc1 | Dose-dependent effect
CCc1ccc(/C=C/c2cc(OC)cc(=O)o2)cc1 | Dose-dependent effect

organism: Mus musculus; assay: Activation of BMP signaling pathway in mouse MC3T3-E1 cells assessed as increase in Runx2 mRNA expression at 10 uM after 2 days by SYBR green-dye based RT-PCR method relative to control; format: cell-based; conditions: not given

SMILES | fold change (FC)
CCCCc1ccc(/C=C/c2cc(OC)cc(=O)o2)cc1 | 1.42
CCc1ccc(/C=C/c2cc(OC)cc(=O)o2)cc1 | 1.5

organism: Mus musculus; assay: Activation of BMP signaling pathway in mouse MC3T3-E1 cells assessed as increase in Bglap mRNA expression at 10 uM after 2 days by SYBR green-dye based RT-PCR method relative to control; format: cell-based; conditions: not given

SMILES | fold change (FC)
CCCCc1ccc(/C=C/c2cc(OC)cc(=O)o2)cc1 | 1.33
CCc1ccc(/C=C/c2cc(OC)cc(=O)o2)cc1 | 1.92

test system: MC3T3-E1; assay: Cytotoxicity against mouse MC3T3-E1 cells assessed as cell number at 30 uM measured after 4 days by WST-8 assay relative to control; format: cell-based; conditions: mc3t3-e1, 96 h

SMILES | fold change (FC)
COc1cc(/C=C/c2ccc(C(C)(C)C)cc2)oc(=O)c1 | 0.85 to 1.25
CCCc1ccc(/C=C/c2cc(OC)cc(=O)o2)cc1 | 0.85 to 1.25
COc1cc(/C=C/c2cccc(C)c2)oc(=O)c1 | 0.85 to 1.25
CCOc1ccc(/C=C/c2cc(OC)cc(=O)o2)cc1 | 0.85 to 1.25
CCc1ccccc1/C=C/c1cc(OC)cc(=O)o1 | 0.85 to 1.25
COc1cc(/C=C/c2ccccc2C)oc(=O)c1 | 0.85 to 1.25
COc1ccc(/C=C/c2cc(OC)cc(=O)o2)cc1 [YANGONIN] | 0.85 to 1.25
CCCCc1ccc(/C=C/c2cc(OC)cc(=O)o2)cc1 | 0.85 to 1.25
CCc1cccc(/C=C/c2cc(OC)cc(=O)o2)c1 | 0.85 to 1.25
CCc1ccc(/C=C/c2cc(OC)cc(=O)o2)cc1 | 0.85 to 1.25
COc1cc(/C=C/c2ccsc2)oc(=O)c1 | 0.85 to 1.25

test system: RAW264; assay: Inhibition of RANKL-stimulated osteoclastogenesis in mouse RAW264 cells assessed as reduction in TRAP activity at 20 uM measured after 72 hrs by microscopic analysis; format: functional, cell-based; conditions: not given

SMILES | inhibition
CC(C)Oc1ccc2c(=O)c(-c3ccccc3)coc2c1 | Active
CCCCc1ccc(/C=C/c2cc(OC)cc(=O)o2)cc1 | Active
CCc1ccc(/C=C/c2cc(OC)cc(=O)o2)cc1 | Active

test system: MC3T3-E1; assay: Osteogenic activity in mouse MC3T3-E1 cells assessed as increase in mineralization at 10 uM measured after 10 days by alizarin red S staining based assay; format: functional, cell-based; conditions: not given

SMILES | Activity
COc1cc(/C=C/c2ccc(C(C)(C)C)cc2)oc(=O)c1 | Active
CCCCc1ccc(/C=C/c2cc(OC)cc(=O)o2)cc1 | Active

test system: MC3T3-E1; assay: Osteogenic activity in mouse MC3T3-E1 cells assessed as increase in ALP activity at 10 uM measured after 4 days relative to control; format: functional, cell-based; conditions: not given

SMILES | Activity
COc1cc(/C=C/c2ccc(C(C)(C)C)cc2)oc(=O)c1 | Active
CCCCc1ccc(/C=C/c2cc(OC)cc(=O)o2)cc1 | Active

organism: Mus musculus; assay: Activation of BMP signaling pathway in mouse MC3T3-E1 cells assessed as increase in Osterix mRNA expression after 2 days by SYBR green-dye based RT-PCR method; format: cell-based; conditions: not given

SMILES | Activity
CCCCc1ccc(/C=C/c2cc(OC)cc(=O)o2)cc1 | Dose-dependent effect
CCc1ccc(/C=C/c2cc(OC)cc(=O)o2)cc1 | Dose-dependent effect

test system: MC3T3-E1; assay: Osteogenic activity in mouse MC3T3-E1 cells assessed as increase in mineralization at 30 uM measured after 10 days in presence of type-1 BMP receptor kinase inhibitor LDN-193189 by alizarin red S staining based assay; format: functional, cell-based; conditions: not given

SMILES | Activity
CCCCc1ccc(/C=C/c2cc(OC)cc(=O)o2)cc1 | inactive
CCc1ccc(/C=C/c2cc(OC)cc(=O)o2)cc1 | inactive

organism: Mus musculus; assay: Activation of BMP signaling pathway in mouse MC3T3-E1 cells assessed as increase in Bglap mRNA expression after 2 days by SYBR green-dye based RT-PCR method; format: cell-based; conditions: not given

SMILES | Activity
CCCCc1ccc(/C=C/c2cc(OC)cc(=O)o2)cc1 | Dose-dependent effect
CCc1ccc(/C=C/c2cc(OC)cc(=O)o2)cc1 | Dose-dependent effect

biological target: T1, MAP kinase p38 (Mus musculus) (UniProt P47811+O08911+Q9WUI1+Q9Z1B7); assay: Induction of p38 MAPK phosphorylation in mouse MC3T3-E1 cells assessed as ratio of phosphorylated p38 to unphosphorylated p38 protein level at 30 uM measured after 15 mins by Western blot analysis relative to control; format: cell-based; conditions: not given

SMILES | Ratio
CCCCc1ccc(/C=C/c2cc(OC)cc(=O)o2)cc1 | 1.5
CCc1ccc(/C=C/c2cc(OC)cc(=O)o2)cc1 | 1.7

test system: MC3T3-E1; assay: Osteogenic activity in mouse MC3T3-E1 cells assessed as increase in ALP activity at 30 uM measured after 4 days relative to control; format: functional; conditions: not given

SMILES | Activity | fold change (FC)
COc1cc(/C=C/c2cccc(C)c2)oc(=O)c1 | Active | 
CCOc1ccc(/C=C/c2cc(OC)cc(=O)o2)cc1 |  | 1.32 - 2.87
CCc1ccccc1/C=C/c1cc(OC)cc(=O)o1 | inactive | 
COc1cc(/C=C/c2ccccc2C)oc(=O)c1 | Active | 
COc1ccc(/C=C/c2cc(OC)cc(=O)o2)cc1 [YANGONIN] | inactive | 
CCCCc1ccc(/C=C/c2cc(OC)cc(=O)o2)cc1 | Active | 
CCc1cccc(/C=C/c2cc(OC)cc(=O)o2)c1 | Active | 
CCc1ccc(/C=C/c2cc(OC)cc(=O)o2)cc1 |  | 1.32 - 2.87
COc1cc(/C=C/c2ccsc2)oc(=O)c1 | inactive | 

biological target: T1, MAP kinase p38 (Mus musculus); assay: Induction of p38 MAPK phosphorylation in mouse MC3T3-E1 cells assessed as ratio of phosphorylated p38 to unphosphorylated p38 protein level at 30 uM measured after 30 mins by Western blot analysis relative to control; format: cell-based; conditions: not given

SMILES | Ratio
CCCCc1ccc(/C=C/c2cc(OC)cc(=O)o2)cc1 | 1.1
CCc1ccc(/C=C/c2cc(OC)cc(=O)o2)cc1 | 1.2

biological target: T2, SMAD1/5/9 (Mus musculus) (UniProt P70340+P97454+Q9JIW5); assay: Induction of Smad1/5/8 phosphorylation in mouse MC3T3-E1 cells assessed as ratio of phosphorylated Smad1/5/8 to actin beta protein level at 30 uM measured after 30 mins by Western blot analysis relative to control; format: cell-based; conditions: not given

SMILES | Ratio
CCCCc1ccc(/C=C/c2cc(OC)cc(=O)o2)cc1 | 1.1
CCc1ccc(/C=C/c2cc(OC)cc(=O)o2)cc1 | 1

biological target: T2, SMAD1/5/9 (Mus musculus); assay: Induction of Smad1/5/8 phosphorylation in mouse MC3T3-E1 cells assessed as ratio of phosphorylated Smad1/5/8 to actin beta protein level at 30 uM measured after 5 mins by Western blot analysis relative to control; format: cell-based; conditions: not given

SMILES | Ratio
CCCCc1ccc(/C=C/c2cc(OC)cc(=O)o2)cc1 | 1.1
CCc1ccc(/C=C/c2cc(OC)cc(=O)o2)cc1 | 1.1

biological target: T1, MAP kinase p38 (Mus musculus); assay: Induction of p38 MAPK phosphorylation in mouse MC3T3-E1 cells assessed as ratio of phosphorylated p38 to unphosphorylated p38 protein level at 30 uM measured after 5 mins by Western blot analysis relative to control; format: cell-based; conditions: not given

SMILES | Ratio
CCCCc1ccc(/C=C/c2cc(OC)cc(=O)o2)cc1 | 1.6
CCc1ccc(/C=C/c2cc(OC)cc(=O)o2)cc1 | 1.8

test system: RAW264; assay: Inhibition of RANKL-stimulated osteoclastogenesis in mouse RAW264 cells assessed as reduction in TRAP-positive multinucleated cells at 20 uM measured after 72 hrs by TRAP staining based microscopic analysis; format: functional, cell-based; conditions: not given

SMILES | inhibition
CCCCc1ccc(/C=C/c2cc(OC)cc(=O)o2)cc1 | Active
CCc1ccc(/C=C/c2cc(OC)cc(=O)o2)cc1 | Active

test system: MC3T3-E1; assay: Osteogenic activity in mouse MC3T3-E1 cells assessed as increase in mineralization at 30 uM measured after 10 days in presence of p38 MAPK inhibitor SB203580 by alizarin red S staining based assay; format: functional, cell-based; conditions: not given

SMILES | Activity
CCCCc1ccc(/C=C/c2cc(OC)cc(=O)o2)cc1 | inactive
CCc1ccc(/C=C/c2cc(OC)cc(=O)o2)cc1 | inactive

biological target: T2, SMAD1/5/9 (Mus musculus); assay: Induction of Smad1/5/8 phosphorylation in mouse MC3T3-E1 cells assessed as ratio of phosphorylated Smad1/5/8 to actin beta protein level at 30 uM measured after 15 mins by Western blot analysis relative to control; format: cell-based; conditions: not given

SMILES | Ratio
CCCCc1ccc(/C=C/c2cc(OC)cc(=O)o2)cc1 | 1.1
CCc1ccc(/C=C/c2cc(OC)cc(=O)o2)cc1 | 1
